{"source": "patent US20110306541A1", "about": "“METHODS FOR TREATING HCV” (priority 2010, published 2011)", "key": {"HCV 1b replicon": {"tested_on": "HCV 1b replicon", "assay": "Renilla luciferase (RLuc)-based HCV replicon reporter assay - HCV 1b RLuc", "assay_type": "cell-based", "details": "Hepatitis C virus; Table I; HCV 1b RLuc replicon"}, "[1]": {"assay": "Exposure (AUC) corresponding to dose", "assay_type": "in vivo, human", "details": "for AUC: human, in vivo"}, "[2]": {"assay": "Bilirubin elevations related to dose of Compound 3", "assay_type": "in vivo, human", "details": "doses above 400 mg"}, "[3]": {"assay": "Drug-drug interaction on co-administration", "assay_type": "in vivo"}}}
{"smiles": "COC(=O)N[C@H](C(=O)N1CCC[C@H]1c1nc(C#Cc2ccc3cc(-c4cnc([C@@H]5CC(F)(F)CN5C(=O)[C@@H](NC(=O)OC)C(C)C)[nH]4)ccc3c2)c[nH]1)C(C)C", "values": [{"measurement": "EC50", "setting": "HCV 1b replicon", "value": 14.7, "unit": "pM"}]}
{"smiles": "COC(=O)N[C@H](C(=O)N1CCC[C@H]1c1ncc(C#CC2=CC3SC(c4cnc([C@@H]5CCCN5C(=O)[C@@H](NC(=O)OC)C(C)C)[nH]4)=CC3S2)[nH]1)C(C)C", "note": "(stereo partly drawn)", "values": [{"measurement": "EC50", "setting": "HCV 1b replicon", "value": 50.3, "unit": "pM"}]}
{"smiles": "COC(=O)N[C@H](C(=O)N1CCC[C@H]1c1ncc(-c2ccc3cc4cc(-c5cnc([C@@H]6CCCN6C(=O)[C@@H](NC(=O)OC)C(C)C)[nH]5)ccc4cc3c2)[nH]1)C(C)C", "values": [{"measurement": "EC50", "setting": "HCV 1b replicon", "value": 7, "unit": "pM"}]}
{"smiles": "CC[C@@H]1C[C@]1(NC(=O)[C@@H]1C[C@@H](Oc2cc(-c3csc(NC(C)C)n3)nc3c(Cl)c(OCCN4CCOCC4)ccc23)CN1C(=O)[C@@H](NC(=O)O[C@@H]1C[C@@H]2C[C@@H]2C1)C(C)(C)C)C(=O)O", "note": "[Compound 3]", "values": [{"measurement": "AUC", "setting": "[1]; 10 mg dose", "value": 272, "unit": "ng·h/mL"}, {"measurement": "AUC", "setting": "[1]; 1000 mg dose", "value": 48400, "unit": "ng·h/mL"}, {"measurement": "bilirubin elevations", "setting": "[2]", "value": "more bilirubin elevations in some cases"}]}
{"smiles": "Fc1ccccc1-c1nc2ccn(Cc3ccc(-c4ccc(C(F)(F)F)cc4C(F)(F)F)nn3)cc-2n1", "note": "[Compound 1, 5-((6-(2,4-bis(trifluoromethyl)phenyl)pyridazin-3-yl)methyl)-2-(2-fluorophenyl)-5H-imidazo[4,5-c]pyridine]", "values": [{"measurement": "increase of the exposure of Compound 1", "setting": "[3]; co-administered with Compound 2", "value": "2-3 ×"}, {"measurement": "effect on drug metabolizing systems", "setting": "[3]; in vivo", "value": "it does not appear that Compound 1 affects drug metabolizing systems"}]}
{"smiles": "COC(=O)NC(C(=O)N1CC2(CC2)CC1c1ncc(-c2ccc3c(c2)C(F)(F)c2cc(-c4ccc5nc(C6C7CCC(C7)N6C(=O)C(NC(=O)OC)C(C)C)[nH]c5c4)ccc2-3)[nH]1)C(C)C", "note": "(stereo not drawn) [Compound 16, (1-{3-[6-(9,9-Difluoro-7-{2-[5-(2-methoxycarbonylamino-3-methyl-butyryl)-5-aza-spiro[2.4]hept-6-yl]-3H-imidazol-4-yl}-9H-fluoren-2-yl)-1H-benzoimidazol-2-yl]-2-aza-bicyclo[2.2.1]heptane-2-carbonyl}-2-methyl-propyl)-carbamic acid methyl ester]", "values": [{"measurement": "exposure", "setting": "[1]; 3 mg dose", "value": 32.3, "unit": "ng·h/mL"}, {"measurement": "exposure", "setting": "[1]; 30 mg dose", "value": 1415.2, "unit": "ng·h/mL"}, {"measurement": "exposure", "setting": "[1]; 90 mg dose", "value": 4137.9, "unit": "ng·h/mL"}, {"measurement": "exposure", "setting": "[1]; 100 mg dose", "value": 11166.6, "unit": "ng·h/mL"}, {"measurement": "exposure", "setting": "[1]; 300 mg dose", "value": 38900, "unit": "ng·h/mL"}]}
{"smiles": "COC(=O)N[C@H](C(=O)N1CCC[C@H]1c1ncc(-c2ccc3cc(-c4ccc(-c5cnc([C@@H]6CCCN6C(=O)[C@H](NC(=O)OC)c6ccccc6)[nH]5)cc4)ccc3c2)[nH]1)C(C)C", "values": [{"measurement": "EC50", "setting": "HCV 1b replicon", "value": 8.1, "unit": "pM"}]}
{"smiles": "COC(=O)N[C@H](C(=O)N1CCC[C@H]1c1ncc(-c2cc3cc4sc(-c5cnc([C@@H]6CCCN6C(=O)[C@@H](NC(=O)OC)C(C)C)[nH]5)cc4cc3s2)[nH]1)C(C)C", "values": [{"measurement": "EC50", "setting": "HCV 1b replicon", "value": 7.7, "unit": "pM"}]}
